This passage reports Treated cells, IC50 and Concentration results from ChEMBL document CHEMBL1135332, “Synthesis and cytotoxic activity of pyridazino[1',6':1,2]pyrido[3,4-b]indol-5-inium derivatives as anti-cancer agents” (Bioorg Med Chem Lett, 2002).

Broadly, the IC50 is the midpoint of a concentration-inhibition curve.

The test system of test [1] is L1210. The following applies: Mus musculus.
Description: Effect on L1210 cell cycle was determined and percent of treated cells in the G1 phase of L1210 leukemia cells was determined; NS implies not significant.
Test [2] has as its system L1210. The following applies: Mus musculus. This is another data set of the same source.
Description: Effect on L1210 cell cycle was determined and percent of treated cells in the G2M phase of L1210 leukemia cells was determined; NS implies not significant.
Test [3] has as its system L1210. Put plainly: Inhibitory concentration required against L1210 leukemia cells. The class given is functional, cell-based. The following applies: Mus musculus.
Test [4] has as its system L1210. The test is described as follows: Effect of compound on L1210 cell cycle was determined and percent of treated cells in the G2M phase of L1210 leukemia cells was determined. The class given is functional, Mus musculus.
Test [5] concerns L1210. The test is described as follows: Effect on L1210 cell cycle was determined and percent of treated cells in the G1 phase of L1210 leukemia cells was determined. In kind it is functional, Mus musculus.
Test [6] concerns L1210. The test is described as follows: Cytotoxic concentration against L1210 leukemia cells was determined; 30% apoptosis ([…]) was observed. The class given is functional, cell-based. To be noted: Mus musculus.
The subject of test [7] is L1210. Put plainly: Effect of compound on L1210 cell cycle was determined and percent of treated cells in the G2M phase of L1210 leukemia cells. In kind it is functional, Mus musculus.

Turning to `CCc1cc2c3[nH]c4ccc(Br)cc4c3cc[n+]2nc1CC`, the Treated cells result with L1210 [1] and in the test with L1210 [2] was “Not significant” throughout. Also, the IC50 with L1210 [3] came out at 2300 nM.
With `CC[C@@]1(O)C(=O)OCc2c1cc1n(c2=O)Cc2cc3ccccc3nc2-1` [CAMPTOTHECIN], in the test with L1210 [3], inhibition was half-maximal at 30 nM (IC50). Moreover, the Treated cells in the test on L1210 [4] came to 80%.
The molecule `COc1ccc2c3cc[n+]4nc(/C=C/[Si](C(C)C)(C(C)C)C(C)C)c(/C=C/[Si](C(C)C)(C(C)C)C(C)C)cc4c3n(C)c2c1` came in with an IC50 in the test on L1210 [3] of 2300 nM.
As for `CCc1cc2c3[nH]c4cc(OCc5ccccc5)ccc4c3cc[n+]2nc1CC.[Br-]`, the Treated cells with L1210 [5] is reported as 54%. Also, the IC50 in the test on L1210 [3] was found to be 1900 nM.
Take `CCc1cc2c3[nH]c4c(N)cccc4c3cc[n+]2nc1CC`: the Concentration in the test with L1210 [6] was determined as 5 µM. Also, the Treated cells result in the test on L1210 [1] and in the test on L1210 [2] was “Not significant” each time. For the same molecule, inhibition with L1210 [3] was half-maximal at 1000 nM (IC50).
Regarding `CCCCCn1c2cc(OC)ccc2c2cc[n+]3nc(C)c(C)cc3c21`, the Treated cells in the test with L1210 [5] was found to be 57%. In the test on L1210 [3], this molecule returned an IC50 of 48 nM.
In turn, `CCOC(=O)Cn1c2cc(OC)ccc2c2cc[n+]3nc(CC)c(CC)cc3c21` showed an IC50 with L1210 [3] of 1100 nM. For the same molecule, in the test on L1210 [4], the Treated cells is 46%.
As for `CCc1cc2c3c(cc[n+]2nc1CC)c1ccc(OC)cc1n3C`, in the test with L1210 [5], the Treated cells came to 65%. Besides, in the test with L1210 [3], the IC50 is 1100 nM.
Regarding `CCc1cc2c3[nH]c4cc(OC)ccc4c3cc[n+]2nc1CC`, the Treated cells with L1210 [7] came out at 35%. In the test with L1210 [3], this molecule yielded an IC50 of 2000 nM.
In turn, `C#CCCCn1c2cc(OC)ccc2c2cc[n+]3nc(-c4ccco4)c(-c4ccco4)cc3c21` had a Treated cells in the test on L1210 [5] of 54%. This molecule showed an IC50 in the test with L1210 [3] of 1300 nM.
For `CCOC(=O)Cn1c2cc(OC)ccc2c2cc[n+]3nc(C)c(C)cc3c21`, the Treated cells result in the test on L1210 [1] and with L1210 [2] was “Not significant” throughout. The IC50 in the test on L1210 [3] stood at 5000 nM.
Consider `COc1ccc2c(c1)[nH]c1c2cc[n+]2nc(C)c(C)cc12`, for which, in the test with L1210 [7], the Treated cells is recorded as 38%. In addition, in the test with L1210 [3], the half-maximal inhibitory concentration (IC50) was determined as 1300 nM.
With `CCc1cc2c3[nH]c4ccc([N+](=O)[O-])cc4c3cc[n+]2nc1CC`, the Treated cells result in the test on L1210 [1] and in the test on L1210 [2] was “Not significant” each time. In addition, in the test on L1210 [3], the midpoint of inhibition, the IC50, lay at 15300 nM.
In turn, `CCCCCn1c2cc(OC)ccc2c2cc[n+]3nc(CC)c(CC)cc3c21` yielded a Treated cells in the test with L1210 [5] of 60%. In addition, in the test with L1210 [3], half-maximal inhibition (IC50) was put at 65 nM.
For `Cc1cc2c3[nH]c4cc(OCc5ccccc5)ccc4c3cc[n+]2nc1C`, the Treated cells entry in the test on L1210 [1] and in the test on L1210 [2] was “Not significant” in each case. Besides, half-maximal inhibition with L1210 [3] (IC50) was put at 5200 nM.
`CCc1cc2c3[nH]c4c([N+](=O)[O-])cccc4c3cc[n+]2nc1CC`: the Concentration with L1210 [6] came out at 5 µM. Further, the Treated cells entry in the test with L1210 [1] and in the test on L1210 [2] was “Not significant” throughout. In the test with L1210 [3], this molecule returned an IC50 of 1500 nM.
As for `COc1cccc2c1C(=O)c1c(O)c3c(c(O)c1C2=O)C[C@@](O)(C(=O)CO)C[C@@H]3O[C@H]1C[C@H](N)[C@H](O)[C@H](C)O1` [DOXORUBICIN], the Treated cells with L1210 [4] is given as 81%.
Take `CCOC(=O)CCCn1c2cc(OC)ccc2c2cc[n+]3nc(CC)c(CC)cc3c21`: the Treated cells entry in the test with L1210 [1] and with L1210 [2] was “Not significant” each time. The molecule further showed an IC50 in the test on L1210 [3] of 2000 nM.
As for `C#CCNC(=O)Cn1c2ccccc2c2cc[n+]3nc(-c4cccc5ccccc45)c(-c4cccc5ccccc45)cc3c21`, the Treated cells entry in the test on L1210 [1] and in the test on L1210 [2] was “Not significant” throughout. The half-inhibitory concentration (IC50) in the test on L1210 [3] worked out at 10400 nM.
For the molecule `CCc1cc2c3c(cc[n+]2nc1CC)c1ccccc1n3CCCBr`, the Treated cells result with L1210 [1] and in the test on L1210 [2] was “Not significant” throughout. Further, in the test on L1210 [3], the midpoint of inhibition, the IC50, lay at 1900 nM.
Turning to `CCc1cc2c3[nH]c4cc(O)ccc4c3cc[n+]2nc1CC`, the Treated cells result in the test with L1210 [1] and in the test with L1210 [2] was “Not significant” in each case. This molecule also yielded an IC50 in the test on L1210 [3] of 10000 nM.
For the molecule `C#CCNC(=O)Cn1c2cc(OC)ccc2c2cc[n+]3nc(CC)c(CC)cc3c21`, the IC50 in the test on L1210 [3] is 72900 nM.
